The values that follow are results of earlier work, collected in the CATMoS acute toxicity set (Mansouri et al. 2021).

As usually defined, the LD50 is the dose at which mortality reaches 50%.

Several values for one entry are separate records, joined by “and”; a condition that tells them apart may be missing. Identical values can stand only once.

The nature of this data set: rat acute oral toxicity. The note with it: in vivo.
With `COP(=O)(OC)OC`, the LD50 is 840 mg/kg.

On to `O=C(Cl)CCl`, for which the LD50 is 208 mg/kg.

As for `CCCCCCCCCCCC(=O)O`, the LD50 is 12000 mg/kg.

For the molecule `COS(C)(=O)=O`, the LD50 was 225 mg/kg.

For the molecule `CCN1CCCC1CNS(=O)(=O)c1cc(Cl)c(N)cc1OC` (configuration not stated), the LD50 was 1500 mg/kg.

Consider `CC(C)=CC1C(C(=O)O)C1(C)C` (configuration not stated), for which the LD50 was 2500 mg/kg.

Consider `CCCSc1ccc2[nH]c(NC(=O)OC)nc2c1`, for which the LD50 was 2400 mg/kg.

On to `COC(CN1CCN(CCC(O)c2ccccc2)CC1)c1ccccc1` (configuration not stated), for which the LD50 was 640 mg/kg.

For the molecule `CN=c1oc2ccccc2n1C`, the LD50 was 1000 mg/kg.

Regarding `c1ccc(N(CCN2CCCCC2)Cc2ccccn2)cc1`, the LD50 is 806 mg/kg and 740 mg/kg.

As to `CN=C(O)O/N=C(/C)C(C)(C)[N+](=O)[O-]`, the 50% lethal dose (LD50) was 13 mg/kg.

As for `O=P(O)(O)OC(=CCl)c1ccc(Cl)cc1Cl`, the LD50 was 13 mg/kg.

In the case of `O=C(NCNC(=O)NC1C(=O)NC(=O)N1CO)NC1C(=O)NC(=O)N1CO` (configuration not stated), the LD50 is 11300 mg/kg.

With `CCCCO[Si](OCCCC)(OCCCC)N(C)C1CCCCC1`, the LD50 is 3550 mg/kg.

With `Cc1cccc(C)c1NC(=O)c1cc(S(N)(=O)=O)c(Cl)cc1O`, the median lethal dose (LD50) was 1640 mg/kg.

In the case of `CCCCN(CCO)CCCC`, the LD50 is 1070 mg/kg.

On to `NCCNc1ccc(N)cc1`, for which the LD50 is 190 mg/kg.

Regarding `Cc1ccc(C(=O)c2ccc(CC(=O)NNCC(=O)N3CCN(C)CC3)n2C)cc1`, the LD50 is 978 mg/kg.

In the case of `Clc1ccc(C(Cl)(Cl)c2ccc(Cl)cc2)cc1`, the LD50 was 168 mg/kg.

Take `CCCCCCCCC(CC=CCl)CCCN` (configuration not stated): the LD50 was 1320 mg/kg.

`Cn1c(-c2ccccc2)cc(-c2ccccc2)[n+]1C`: the LD50 is 206 mg/kg and 470 mg/kg.

For `CO[C@@H]1[C@@H](O)[C@@H](O)[C@H](O[C@@H]2C=C3CC[C@@H]4[C@H](CC[C@]5(C)[C@@H](c6ccc(=O)oc6)CC[C@]45O)[C@@]3(C)CC2)O[C@H]1C`, the 50% lethal dose (LD50) is 79 mg/kg.

In the case of `Cc1ccccc1Oc1cccnn1`, the LD50 was 3090 mg/kg.

With `CCOP(=S)(OCC)SCn1nc(C)ccc1=O`, the LD50 is 45 mg/kg.

With `COP(=O)(SC(C)C)SC(C)C`, the LD50 is 119 mg/kg.

As to `CCCCC(CC)COC(=O)C(CC)CCCC` (configuration not stated), the LD50 is 27000 mg/kg.

`O=C(O)CCCc1ccc(N(CCCl)CCCl)cc1`: the LD50 is 76 mg/kg.

With `CCOC(=O)N(c1cccc(C(=O)c2ccccc2)c1)S(=O)(=O)C(F)(F)F`, the LD50 was 4700 mg/kg.

Take `Cc1cc(=O)nc(SCc2ccccc2N(C)C)[nH]1`: the LD50 is 2400 mg/kg.

Take `CCC1COC(Cn2cncn2)(c2ccc(Cl)cc2Cl)O1` (configuration not stated): the LD50 is 1340 mg/kg.

Consider `CN1C2CCC(C)(C)C1CC(OC(=O)C(O)(c1cccs1)c1cccs1)C2` (configuration not stated), for which the LD50 is 1180 mg/kg.

In the case of `C=CCOc1ccccc1C(=O)N(C)C`, the LD50 was 740 mg/kg.

Take `O=[N+]([O-])c1cc([N+](=O)[O-])c2nc(C(F)(F)F)[nH]c2c1`: the LD50 is 11.5 mg/kg.

Take `CC(Cc1ccccc1)NN` (configuration not stated): the LD50 is 34 mg/kg.

For `CC1=C(C(=O)Nc2ccccc2)CCCO1`, the LD50 is 15000 mg/kg.

On to `CC1=NOC(=O)/C1=N\Nc1ccccc1Cl`, for which the LD50 was 126 mg/kg.

In the case of `CCN(C(C)C)C(C)C`, the LD50 was 317 mg/kg.

For the molecule `CCOc1ccccc1N1CCN(CCCc2ccc3c(c2)CCC(=O)N3)CC1`, the median lethal dose (LD50) is 500 mg/kg.

Regarding `CC=C1CC(C)C(C)(O)C(=O)OCC2=CCN3CCC(OC1=O)C23` (configuration not stated), the LD50 is 85 mg/kg.

In the case of `c1ccc(-c2nnn[nH]2)cc1`, the LD50 was 1900 mg/kg.

With `CCCCNC1(P(=O)(OCCCC)OCCCC)CCCCC1`, the LD50 is 3000 mg/kg.

Turning to `Cc1ccc(Cc2ccc(C)cc2)cc1`, the LD50 was 3800 mg/kg and 1700 mg/kg.

Turning to `COCCN(C(=O)CCl)c1c(C)cccc1C`, the LD50 was 1600 mg/kg.

For `c1nc(NC2CC2)c2ncn(C3CC3)c2n1`, the LD50 was 130 mg/kg.

For `CCCCC(CC)COCC1CO1` (configuration not stated), the LD50 was 7800 mg/kg.

Take `CCOP(=S)(OCC)SCn1c(=O)oc2ccccc21`: the LD50 was 81 mg/kg.

`OC(CCl)CN1CCCN(CC(O)CCl)c2ccccc21` (configuration not stated): the LD50 was 750 mg/kg.

Take `CCOC(=O)Nc1ccc2c(c1)N(C(=O)CCN1CCOCC1)c1ccccc1CC2`: the LD50 was 623 mg/kg.

In the case of `ClCC1OC1CCl` (configuration not stated), the LD50 is 710 mg/kg.

For the molecule `C=C(C)CN(CC)c1c([N+](=O)[O-])cc(C(F)(F)F)cc1[N+](=O)[O-]`, the LD50 was 10000 mg/kg.

`O=NN(CCF)C(=O)NC1CCCCC1`: the 50% lethal dose (LD50) was 18.5 mg/kg.

For `CCOC(=S)SCSSCP(=O)(OCC)OCC`, the LD50 is 14 mg/kg.

For `CCCCCCOCC(O)CO` (configuration not stated), the LD50 is 2500 mg/kg.

Turning to `COP(=O)(OC)OC(=CCl)c1cc(Cl)ccc1Cl`, the LD50 is 3790 mg/kg.

As to `O=C1NCCN1/N=C/c1ccc([N+](=O)[O-])o1`, the LD50 is 1680 mg/kg.

Take `CCOC(=O)C1=C(C)NC(C)=C(C(=O)OCCN2CCCCC2)C1c1cccc([N+](=O)[O-])c1` (configuration not stated): the LD50 is 363 mg/kg.

As to `Cc1cccc(N2CCN(CC=Cc3ccc4c(c3)CCC(=O)N4)CC2)c1`, the LD50 is 500 mg/kg.

For the molecule `C=CCC1=C(C)[C@@H](OC(=O)[C@@H]2[C@@H](C=C(C)C)C2(C)C)CC1=O`, the LD50 is 430 mg/kg.

In the case of `CN(C)CC(=O)N/N=C/c1c(Cl)nc2sccn12`, the LD50 is 1500 mg/kg.

As for `Cc1cc(C(=O)NNC(C)Cc2ccccc2)no1` (configuration not stated), the LD50 is 89 mg/kg.

Regarding `COc1cccc(CCc2ccccc2OCC(CN(C)C)OC(=O)CCC(=O)O)c1` (configuration not stated), the LD50 was 4400 mg/kg.

As to `COP(=S)(OC)SC1CSC=CO1` (configuration not stated), the LD50 was 100 mg/kg.

Turning to `CC(=O)Nc1ccncc1`, the 50% lethal dose (LD50) is 446 mg/kg.

Consider `CCOP(=S)(OCC)Oc1ccc(N=C=S)cc1`, for which the LD50 is 251 mg/kg.

As to `FC(F)(F)c1nc2c(I)cc(Cl)cc2[nH]1`, the LD50 was 24 mg/kg.

As for `COc1ccc(OC)c(Cc2cnc3nc(N)nc(N)c3c2C)c1`, the 50% lethal dose (LD50) is 1170 mg/kg.

With `COC(=O)CNC[P@](=O)(O)Oc1ccccc1`, the LD50 was 4100 mg/kg.

Regarding `Cc1cc(=S)c(N)n[nH]1`, the LD50 was 1980 mg/kg.

In the case of `OCP(CO)CO`, the LD50 was 178 mg/kg.

Turning to `CCOC(=O)COc1ccc2c(C)c(CCN(CC)CC)c(=O)oc2c1`, the LD50 is 8000 mg/kg.

Take `O=C=Nc1ccc(Cl)c(C(F)(F)F)c1`: the LD50 is 500 mg/kg.

Consider `O=[N+]([O-])c1ccc2ccccc2c1`, for which the LD50 is 4400 mg/kg.

Consider `COc1c(Cl)cc(Cl)c(Cl)c1C(=O)O`, for which the LD50 was 300 mg/kg.

As to `Cc1cc(C(C)(C)CC(C)(C)C)ccc1OCCOCC[N+](C)(C)Cc1ccccc1`, the LD50 is 800 mg/kg.

Take `COc1cc(-n2ccnc2)ncn1`: the LD50 is 400 mg/kg.

Regarding `C#CC(O)C=CC` (configuration not stated), the LD50 was 34 mg/kg.

Regarding `CC(=O)OCCN(CCOC(C)=O)c1ccccc1`, the LD50 was 2150 mg/kg.

For `OCCN1CCN(CCCN2c3ccccc3C=Cc3ccccc32)CC1`, the LD50 is 1110 mg/kg and 900 mg/kg.

Regarding `O=C1OC(c2ccc(O)cc2)(c2ccc(O)cc2)c2c(I)c(I)c(I)c(I)c21`, the LD50 is 2800 mg/kg.

For the molecule `COP(=O)(OC)SC`, the LD50 is 15 mg/kg.

Regarding `CN(C)c1nc(N(C)C)nc(N(C)C)n1`, the LD50 was 350 mg/kg.

For `CN1CCN(C2=Cc3ccccc3Oc3ccc(F)cc32)CC1`, the LD50 was 646 mg/kg.
